Where only a bound is given, the exact number is not on record here.

The target in the experiment is Proto-oncogene tyrosine-protein kinase receptor Ret (Homo sapiens, UniProt P07949). As to the kind of experiment: Inhibition of RET (unknown origin) pre-incubated for 60 mins before substrate addition in presence of 9 uM ATP by microfluidic assay.
Proto-oncogene tyrosine-protein kinase receptor Ret, sequence (P07949 whole entry): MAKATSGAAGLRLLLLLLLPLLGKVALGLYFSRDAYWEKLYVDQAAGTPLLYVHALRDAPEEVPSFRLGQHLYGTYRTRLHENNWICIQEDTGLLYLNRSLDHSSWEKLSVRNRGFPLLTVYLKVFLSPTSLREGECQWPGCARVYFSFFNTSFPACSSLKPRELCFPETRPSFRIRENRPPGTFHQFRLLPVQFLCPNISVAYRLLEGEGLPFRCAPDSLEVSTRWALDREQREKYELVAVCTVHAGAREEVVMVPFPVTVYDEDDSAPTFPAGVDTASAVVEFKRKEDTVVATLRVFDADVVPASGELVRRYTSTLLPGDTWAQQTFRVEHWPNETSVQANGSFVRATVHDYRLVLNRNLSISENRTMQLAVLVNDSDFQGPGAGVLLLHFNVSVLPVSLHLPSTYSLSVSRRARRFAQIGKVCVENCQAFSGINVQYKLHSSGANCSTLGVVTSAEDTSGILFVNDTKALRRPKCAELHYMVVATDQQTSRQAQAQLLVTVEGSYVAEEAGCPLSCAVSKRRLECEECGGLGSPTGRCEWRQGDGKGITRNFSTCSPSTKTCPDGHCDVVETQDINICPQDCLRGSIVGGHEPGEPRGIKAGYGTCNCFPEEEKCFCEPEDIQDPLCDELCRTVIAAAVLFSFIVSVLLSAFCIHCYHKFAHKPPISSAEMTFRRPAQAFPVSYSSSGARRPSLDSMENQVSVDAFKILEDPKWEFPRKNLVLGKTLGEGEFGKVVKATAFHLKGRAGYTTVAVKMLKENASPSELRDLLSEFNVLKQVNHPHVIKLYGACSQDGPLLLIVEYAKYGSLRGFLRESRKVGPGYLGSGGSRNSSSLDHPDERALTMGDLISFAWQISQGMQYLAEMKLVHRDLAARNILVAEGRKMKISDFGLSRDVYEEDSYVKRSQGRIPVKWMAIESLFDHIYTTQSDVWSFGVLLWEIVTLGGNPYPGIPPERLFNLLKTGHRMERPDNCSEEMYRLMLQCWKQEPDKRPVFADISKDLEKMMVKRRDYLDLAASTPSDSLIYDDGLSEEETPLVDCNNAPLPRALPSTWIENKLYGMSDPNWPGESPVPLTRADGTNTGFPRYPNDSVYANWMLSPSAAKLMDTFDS
With `Cc1cccc(NC(=O)Cc2ccc(-c3ccc4nccn4c3)cc2)c1`, the IC50 is greater than 100 µM.

On to `O=C(Cc1ccc(-c2ccc3nccn3c2)cc1)Nc1cccc(F)c1`, for which the IC50 is greater than 100 µM. The figure for `O=C(Cc1ccc(-c2ccc3nccn3c2)cc1)Nc1cccc(Br)c1` is greater than 100 µM.

Values taken from ChEMBL document CHEMBL3351388, “Identification of two novel RET kinase inhibitors through MCR-based drug discovery: design, synthesis and evaluation” (Eur J Med Chem, 2014).
